{"source": "patent US5151417A", "about": "“3-substituted vinyl cephalosporin derivatives” (Eisai Co., Ltd., priority 1989, dated 1992)", "format_in_all_cases": "cell-based", "key": {"[1]": {"system": "Staphylococcus aureus 209PJCl", "experiment": "In vitro antibacterial activity, Staphylococcus aureus 209PJCl (Table 1)", "experimental": "(§1) Typical compounds out of the compounds described in Examples were classified into some groups. On each compound group, in vitro antibacterial activities were tested by a method known per se in the art."}, "[2]": {"system": "Escherichia coli MIHJ JC-2", "experiment": "In vitro antibacterial activity, Escherichia coli MIHJ JC-2 (Table 1)", "settings": "MIHJJC2", "experimental": "as §1"}, "[3]": {"system": "Klebsiella pneumoniae IID 875", "experiment": "In vitro antibacterial activity, Klebsiella pneumoniae IID 875 (Table 1)", "settings": "IID875", "experimental": "as §1"}, "[4]": {"system": "Serratia marcescens IID 620", "experiment": "In vitro antibacterial activity, Serratia marcescens IID 620 (Table 1)", "settings": "IID620", "experimental": "as §1"}, "[5]": {"system": "Morganella morganii IID 602", "experiment": "In vitro antibacterial activity, Morganella morganii IID 602 (Table 1)", "settings": "IID602", "experimental": "as §1"}, "[6]": {"settings": "Staphylococcus aureus 209PJCl, read-out: MIC"}, "[7]": {"settings": "Escherichia coli MIHJ JC-2, read-out: MIC"}, "[8]": {"settings": "Klebsiella pneumoniae IID 875, read-out: MIC"}, "[9]": {"settings": "Serratia marcescens IID 620, read-out: MIC"}, "[10]": {"settings": "Morganella morganii IID 602, read-out: MIC"}}, "note": "Where two headings read alike, the source gives them in different places.", "data": [{"smiles": "NC(=O)OC/C=C\\C1=C(C(=O)[O-])N2C(=O)C(NC(=O)/C(=N\\O)c3csc(N)n3)[C@H]2SC1.[Na+]", "note": "(stereo partly drawn) [Example 1, Sodium 7-[(Z)-2-(2-aminothiazol-4-yl)-2-hydroxyiminoacetamido]-3-[(Z)-3-carbamoyloxy-1-propenyl]-3-cephem-4-carboxylate]", "values": [{"measurement": "MIC", "setting": "[1]; Staphylococcus aureus, 209PJCL", "result": 0.1, "unit": "µg/mL"}, {"measurement": "MIC", "setting": "[2]; Escherichia coli", "result": 0.025, "unit": "µg/mL"}, {"measurement": "MIC", "setting": "[3]; Klebsiella pneumoniae", "result": 0.012, "unit": "µg/mL"}, {"measurement": "MIC", "setting": "[4]; Serratia marcescens", "result": 0.025, "unit": "µg/mL"}, {"measurement": "MIC", "setting": "[5]; Morganella morganii", "result": 0.012, "unit": "µg/mL"}]}, {"smiles": "CO/N=C(\\C(=O)NC1C(=O)N2C(C(=O)[O-])=C(/C=C\\COC(N)=O)CS[C@H]12)c1csc(N)n1.[Na+]", "note": "(stereo partly drawn) [Example 7, Sodium 7-[(Z)-2-(2-aminothiazol-4-Yl)-2-methoxyiminoacetamido]-3-[(Z)-3-carbamoyloxy-1-propenyl]-3-cephem-4-carboxylate]", "values": [{"measurement": "MIC", "setting": "[1]; Staphylococcus aureus, 209PJCL", "result": 0.8, "unit": "µg/mL"}, {"measurement": "MIC", "setting": "[2]; Escherichia coli", "result": 0.2, "unit": "µg/mL"}, {"measurement": "MIC", "setting": "[3]; Klebsiella pneumoniae", "result": 0.025, "unit": "µg/mL"}, {"measurement": "MIC", "setting": "[4]; Serratia marcescens", "result": 0.025, "unit": "µg/mL"}, {"measurement": "MIC", "setting": "[5]; Morganella morganii", "result": 0.025, "unit": "µg/mL"}]}, {"smiles": "CNC(=O)OC/C=C\\C1=C(C(=O)[O-])N2C(=O)C(NC(=O)/C(=N\\O)c3csc(N)n3)[C@H]2SC1.[Na+]", "note": "(stereo partly drawn) [Example 9, Sodium 7-[(Z)-2-(2-aminothiazol-4-yl)-2-hydroxyiminoacetamido]-3-[(Z)-3-(N-methylcarbamoyloxy)-1-propenyl]-3-cephem-4-carboxylate]", "values": [{"measurement": "MIC", "setting": "[1]; Staphylococcus aureus, 209PJCL", "result": 0.1, "unit": "µg/mL"}, {"measurement": "MIC", "setting": "[2]; Escherichia coli", "result": 0.05, "unit": "µg/mL"}, {"measurement": "MIC", "setting": "[3]; Klebsiella pneumoniae", "result": 0.012, "unit": "µg/mL"}, {"measurement": "MIC", "setting": "[4]; Serratia marcescens", "result": 0.8, "unit": "µg/mL"}, {"measurement": "MIC", "setting": "[5]; Morganella morganii", "result": 0.1, "unit": "µg/mL"}]}, {"smiles": "Nc1nc(/C(=N/O)C(=O)NC2C(=O)N3C(C(=O)O)=C(/C=C/Cn4cnnn4)CSC23)cs1", "note": "(stereo not drawn) [Example 11, 7-[2-(2-Aminothiazole)-2-hydroxyiminoacetamido]-3-(3-1H-tetrazolyl-1-propenyl-1-yl)-3-cephem-4-carboxylate]", "values": [{"measurement": "MIC", "setting": "[1]; [6]", "result": 0.1, "unit": "µg/mL"}, {"measurement": "MIC", "setting": "[2]; [7]", "result": 0.1, "unit": "µg/mL"}, {"measurement": "MIC", "setting": "[3]; [8]", "result": 0.05, "unit": "µg/mL"}, {"measurement": "MIC", "setting": "[4]; [9]", "result": 0.8, "unit": "µg/mL"}, {"measurement": "MIC", "setting": "[5]; [10]", "result": 0.05, "unit": "µg/mL"}]}, {"smiles": "Nc1nc(/C(=N/O)C(=O)NC2C(=O)N3C(C(=O)O)=C(/C=C/Cn4ncnn4)CSC23)cs1", "note": "(stereo not drawn) [Example 12, 7-[2-(2-Aminothiazole)-2-hydroxyiminoacetamido]-3-(3-2H-tetrazolyl-1-propenyl-1-yl)-3-cephem-4-carboxylic Acid]", "values": [{"measurement": "MIC", "setting": "[1]; [6]", "result": 0.1, "unit": "µg/mL"}, {"measurement": "MIC", "setting": "[2]; [7]", "result": 0.1, "unit": "µg/mL"}, {"measurement": "MIC", "setting": "[3]; [8]", "result": 0.1, "unit": "µg/mL"}, {"measurement": "MIC", "setting": "[4]; [9]", "result": 0.8, "unit": "µg/mL"}, {"measurement": "MIC", "setting": "[5]; [10]", "result": 0.05, "unit": "µg/mL"}]}, {"smiles": "NC(=O)OC/C=C/C1=C(C(=O)[O-])N2C(=O)C(NC(=O)/C(=N\\O)c3csc(N)n3)[C@H]2SC1.[Na+]", "note": "(stereo partly drawn) [Example 13, Sodium 7-[(Z)-2-(2-aminothiazol-4-yl)-2-hydroxyiminoacetamido]-3-[(E)-3-carbamoyloxy-1-propenyl]-3-cephem-4-carboxylate]", "values": [{"measurement": "MIC", "setting": "[1]; Staphylococcus aureus, 209PJCL", "result": 0.1, "unit": "µg/mL"}, {"measurement": "MIC", "setting": "[2]; Escherichia coli", "result": 0.1, "unit": "µg/mL"}, {"measurement": "MIC", "setting": "[3]; Klebsiella pneumoniae", "result": 0.025, "unit": "µg/mL"}, {"measurement": "MIC", "setting": "[4]; Serratia marcescens", "result": 0.1, "unit": "µg/mL"}, {"measurement": "MIC", "setting": "[5]; Morganella morganii", "result": 0.05, "unit": "µg/mL"}]}]}
